Data reported in patent publication US20220002279A1, “NOVEL IMIDAZOLE DERIVATIVE” (priority 2018, published 2022).
In brackets after ≈: the same amount, converted by molar mass.

Columns and labels:
Test in all cases: Antimicrobial activity, MIC by broth microdilution
Assay type in all cases: cell-based
[1] = tested on: Escherichia coli strain ATCC25922; conditions: ATCC25922, 18 h, cation-adjusted Mueller-Hinton broth, about 5×10^5 CFU/mL, 35° C., about 18 hours, read-out: MIC Escherichia coli ATCC25922
Description: (§1) Test Example 4 Evaluation of the Antimicrobial Activity
(§2) For minimum inhibitory concentration (MIC) measurement, the following broth microdilution method was applied as adapted from the standard procedure recommended by the CLSI (Clinical and Laboratory Standards Institute).
(§3) The bacteria used were Pseudomonas aeruginosa strain ATCC27853, Escherichia coli strain ATCC25922, and Klebsiella pneumoniae strain ATCC13883. After culture overnight on a heart infusion agar medium, the cells of a test bacterium were scraped off, and a bacterial solution suspended to have a turbidity of level 0.5 on the McFarland scale was diluted and used as an inoculum solution. The inoculum solution was inoculated in a cation-adjusted Mueller-Hinton broth medium containing a test compound so that the final inoculation concentration was about 5×10^5 CFU/mL, and cultured at 35° C. for about 18 hours. A minimum drug concentration at which no cell growth was visible to the naked eye was designated as MIC. […] In the table, ND represents the case where suppression of the cell growth in a drug concentration-dependent manner was not observed (Not Determined), and NT represents that no test was conducted (Not Tested).

[2] = tested on: Klebsiella pneumoniae strain ATCC13883; conditions: ATCC13883, cation-adjusted Mueller-Hinton broth, about 5×10^5 CFU/mL, 35° C., about 18 hours, read-out: MIC Klebsiella pneumoniae ATCC13883
Description: as §1, §2, §3

[3] = tested on: Pseudomonas aeruginosa strain ATCC27853; conditions: ATCC27853, 18 h, cation-adjusted Mueller-Hinton broth, about 5×10^5 CFU/mL, 35° C., about 18 hours, read-out: MIC Pseudomonas aeruginosa ATCC27853
Description: as §1, §2, §3

MIC [1] [µg/mL] | MIC [2] [µg/mL] | MIC [3] [µg/mL] | Structure (SMILES)
8 (≈ 17.3 µM) | 8 (≈ 17.3 µM) | 2 (≈ 4.33 µM) | C[C@H](O)c1nccn1[C@H](CN)c1cc(-c2ccc(C#C[C@@H]3[C@H]4CN(CCCO)C[C@@H]34)cc2)on1 [Compound 132, 3-{(1R,5S,6s)-6-[(4-{3-[(1R)-2-amino-1-{2-[(1S)-1-hydroxyethyl]-1H-imidazol-1-yl}ethyl]-1,2-oxazol-5-yl}phenyl)ethynyl]-3-azabicyclo[3.1.0]hexan-3-yl) propan-1-ol]
1 (≈ 2.17 µM) | 4 (≈ 8.67 µM) | 2 (≈ 4.33 µM) | C[C@H](O)CN1C[C@@H]2[C@@H](C#Cc3ccc(-c4cc([C@@H](CN)n5ccnc5[C@H](C)O)no4)cc3)[C@@H]2C1 [Compound 136, (S)-1-((1R,5S,6R)-6-((4-(3-((R)-2-amino-1-(2-((S)-1-hydroxyethyl)-1H-imidazol-1-yl)ethyl)isoxazol-5-yl)phenyl)ethynyl)-3-azabicyclo[3.1.0]hexan-3-yl)propan-2-ol]
4 (≈ 9.23 µM) | 2 (≈ 4.61 µM) | 32 (≈ 73.8 µM) | C[C@H](O)c1nccn1[C@H](CN)c1cc(-c2ccc(C#C[C@H]3C[C@H](N(C)C=O)C3)cc2)on1 [Compound 123, N-{trans-3-[(4-{3-[(1R)-2-amino-1-{2-[(1S)-1-hydroxyethyl]-1H-imidazol-1-yl}ethyl]-1,2-oxazol-5-yl}phenyl)ethynyl]cyclobutyl}-N-methylformamide]
 |  | 8 (≈ 19.8 µM) | C[C@H](O)c1nccn1[C@H](CN)c1cc(-c2ccc(C#CC3C4COCC34)cc2)on1 (stereo partly drawn) [Compound 58, (1S)-1-{1-[(1R)-2-amino-1-(5-{4-[(3-oxabicyclo[3.1.0]hexan-6-yl)ethynyl]phenyl}-1,2-oxazol-3-yl)ethyl]-1H-imidazol-2-yl} ethan-1-ol]
 | 8 (≈ 18 µM) | 32 (≈ 71.8 µM) | CC(=O)N1C[C@@H]2[C@@H](C#Cc3ccc(-c4cc([C@@H](CN)n5ccnc5[C@H](C)O)no4)cc3)[C@@H]2C1 [Compound 91, 1-{(1R,5S,6s)-6-[(4-{3-[(1R)-2-Amino-1-{2-[(1S)-1-hydroxyethyl]-1H-imidazol-1-yl}ethyl]-1,2-oxazol-5-yl}phenyl)ethynyl]-3-azabicyclo[3.1.0]hexan-3-yl}ethan-1-one]
 | 4 (≈ 10.2 µM) |  | C[C@H](O)c1nccn1[C@H](CN)c1cc(-c2ccc(C#C[C@H]3C[C@H](O)C3)cc2)no1 [Compound 100, trans-3-[(4-{5-[(1R)-2-amino-1-{2-[(1S)-1-hydroxyethyl]-1H-imidazol-1-yl}ethyl]-1,2-oxazol-3-yl}phenyl)ethynyl]cyclobutan-1-ol]
 | 32 (≈ 76.1 µM) | 8 (≈ 19 µM) | C[C@H](O)c1nccn1[C@H](CN)c1cc(-c2ccc(C#CC3CC(C(=O)O)C3)cc2)on1 (stereo partly drawn) [Compound 130, 3-[(4-{3-{(1R)-2-amino-1-(2-[(1S)-1-hydroxyethyl]-1H-imidazol-1-yl}ethyl]-1,2-oxazol-5-yl}phenyl)ethynyl]cyclobutane-1-carboxylate]
 | 4 (≈ 8.67 µM) | 4 (≈ 8.67 µM) | C[C@H](O)c1nccn1[C@H](CN)c1cc(-c2ccc(C#C[C@@H]3[C@H]4CN(C[C@@H](C)O)C[C@@H]34)cc2)on1 [Compound 137, (R)-1-((1R,5S,6R)-6-((4-(3-((R)-2-amino-1-(2-((S)-1-hydroxyethyl)-1H-imidazol-1-yl)ethyl)isoxazol-5-yl)phenyl)ethynyl)-3-azabicyclo[3.1.0]hexan-3-yl)propan-2-ol]
2 (≈ 4.33 µM) |  | 4 (≈ 8.67 µM) | CNC[C@H](c1cc(-c2ccc(C#C[C@@H]3[C@H]4CN(CCO)C[C@@H]34)cc2)on1)n1ccnc1[C@H](C)O [Compound 38, (1S)-1-{1-[(1R)-1-[5-(4-{[(1R,5S,6s)-3-(2-Hydroxyethyl)-3-azabicyclo[3.1.0]hexan-6-yl]ethynyl}phenyl)-1,2-oxazol-3-yl]-2-(methylamino)ethyl]-1H-imidazol-2-yl}ethan-1-ol]
 | 32 (≈ 73.5 µM) | 4 (≈ 9.18 µM) | C[C@H](O)c1nccn1[C@H](CN)c1cc(-c2ccc(C#C[C@H]3C[C@H](NCCO)C3)cc2)on1 [Compound 134, (1S)-1-{1-[(1R)-2-amino-1-{5-[4-({trans-3-[(2-hydroxyethyl)amino]cyclobutyl}ethynyl)phenyl]-1,2-oxazol-3-yl}ethyl]-1H-imidazol-2-yl}ethan-1-ol]
